For 18 molecules, IC50 results are on record in patent US20260325540A1 (priority 2023, published 2026).

SMILES strings stand for the structures. Some results are limits rather than exact numbers.

Assay [1] has as its target SARS-CoV-2 3CLpro (Severe acute respiratory syndrome coronavirus 2, UniProt P0DTD1). As to the kind of experiment: FRET based protease assay, SARS-CoV-2 3CL. In kind it is biochemical, SARS-CoV-2 (strain BetaCoV/Wuhan/WIV04/2019).
The target of assay [2] is MERS-CoV 3CLpro (Middle East respiratory syndrome-related coronavirus, UniProt K9N638). As to the kind of experiment: biochemical. As to conditions: MERS IC50, 75 nM MERS-CoV 3CLpro, 6 μM peptide 1 substrate, 25° C., 1.5 hrs, pH 7.5.
Chain of MERS-CoV 3CLpro (K9N638 3248-3553 limits assumed): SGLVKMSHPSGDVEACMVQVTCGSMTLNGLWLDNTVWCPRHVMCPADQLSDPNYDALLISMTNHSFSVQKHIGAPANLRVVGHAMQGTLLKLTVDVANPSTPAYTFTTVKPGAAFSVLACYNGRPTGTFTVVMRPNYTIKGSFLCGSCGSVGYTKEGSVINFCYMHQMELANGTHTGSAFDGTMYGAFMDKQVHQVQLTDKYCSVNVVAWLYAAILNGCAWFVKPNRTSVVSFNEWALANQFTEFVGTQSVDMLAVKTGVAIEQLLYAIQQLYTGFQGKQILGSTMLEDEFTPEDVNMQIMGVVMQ

By IC50 is commonly meant the midpoint of a concentration-inhibition curve. Lower therefore signals higher potency. For the molecule `CC(C)(C)OC(=O)N[C@H]1COCCC[C@H]2CNC(=O)[C@H]2C[C@@H](C#N)NC(=O)[C@@H]2[C@@H]3[C@H](CN2C1=O)C3(C)C` [Example 102], the IC50 in assay [1] was less than 0.1 µM; in assay [2] it was 0.1 to 1 µM. For `CC(C)(C(=O)N[C@H]1CCCC[C@H]2CNC(=O)[C@H]2C[C@@H](C#N)NC(=O)[C@@H]2[C@@H]3[C@H](CN2C1=O)C3(C)C)c1ccc(Cl)cc1` [Example 121] the same measures were less than 0.1 µM and 0.1 to 1 µM.

Regarding `CC(C)(C)C(=O)N[C@H]1CCCC[C@H]2CNC(=O)[C@H]2C[C@@H](C#N)NC(=O)[C@@H]2CCCCN2C1=O` [Example 71], the IC50 in assay [1] and in assay [2] was 1 to 20 µM each time. For the molecule `CC1(C)[C@@H]2[C@H]3C(=O)N[C@H](C#N)C[C@@H]4C(=O)NC[C@@H]4CCCC[C@H](NC(=O)C(F)(F)F)C(=O)N3C[C@@H]21` [Example 87], the half-maximal inhibitory concentration (IC50) in assay [1] and in assay [2] was less than 0.1 µM throughout.

Take `CC(C)(C)C(=O)N[C@H]1CCC[C@H]2CCNC(=O)[C@@H]2C[C@@H](C#N)NC(=O)[C@@H]2[C@@H]3[C@H](CN2C1=O)C3(C)C` [Example 66]: the concentration for half-maximal inhibition (IC50) in assay [1] was less than 0.1 µM; in assay [2] it was 0.1 to 1 µM. For `N#C[C@@H]1C[C@@H]2C(=O)NCC[C@@H]2CCCC[C@H](NC(=O)OC2CCCC2)C(=O)N2C[C@@H]3CCC[C@@H]3[C@H]2C(=O)N1` [Example 93] the same measures were less than 0.1 µM and 0.1 to 1 µM. For `CC(C)C[C@@H]1NC(=O)C(OC2CCCCC2)CCC[C@H]2CNC(=O)[C@@H]2C[C@@H](C#N)NC1=O` (some centres unmarked) [Example 23] the same measures were more than 20 µM and more than 20 µM. For `CC(C)(C)C(=O)N[C@H]1C/C=C/[C@H]2CNC(=O)[C@H]2C[C@@H](C#N)NC(=O)[C@@H]2[C@@H]3[C@H](CN2C1=O)C3(C)C` [Example 63] the same measures were less than 0.1 µM and 0.1 to 1 µM. With `CC(C)(C)OC(=O)N[C@H]1CCCC[C@H]2CCNC(=O)[C@H]2C[C@@H](C#N)NC(=O)[C@@H]2[C@@H]3[C@H](CN2C1=O)C3(C)C` [Example 96], the half-inhibitory concentration (IC50) in assay [2] is less than 0.1 µM. Consider `CC1(C)[C@@H]2[C@H]3C(=O)N[C@H](C#N)C[C@@H]4C(=O)NC[C@@H]4CCCC[C@H](NC(=O)c4ccc(Cl)c(Cl)c4)C(=O)N3C[C@@H]21` [Example 120], for which the IC50 in assay [1] and in assay [2] was less than 0.1 µM in each case. Regarding `CC(C)(C)OC(=O)N[C@H]1CC/C=C\[C@H]2CCNC(=O)[C@H]2CC(C#N)NC(=O)[C@@H]2[C@H]3CCC[C@H]3CN2C1=O` (some centres unmarked) [Example 97], the values for the IC50 in assay [1] and in assay [2] were less than 0.1 µM and 0.1 to 1 µM, respectively. On the same counts, the results for `CC(C)C[C@@H]1NC(=O)CCCC[C@H]2CNC(=O)[C@@H]2C[C@@H](C=O)NC1=O` [Example 4] are less than 0.1 µM and 0.1 to 1 µM. For `CC1(C)[C@@H]2[C@H]3C(=O)N[C@H](C#N)C[C@@H]4C(=O)NC[C@@H]4CCCC[C@H](NC(=O)c4ccc(F)cc4)C(=O)N3C[C@@H]21` [Example 82] the same measures were less than 0.1 µM and less than 0.1 µM. On the same counts, the results for `CC(C)(C)OC(=O)N[C@H]1CC/C=C\[C@H]2CCNC(=O)[C@H]2C[C@@H](C#N)NC(=O)[C@@H]2[C@@H]3[C@H](CN2C1=O)C3(C)C` [Example 114] are less than 0.1 µM and 0.1 to 1 µM. `CC(C)C[C@@H]1NC(=O)CCCCC[C@@H]2CNC(=O)[C@H]2C[C@@H](C=O)NC1=O` [Example 31]: the 50% inhibitory concentration (IC50) in assay [1] and in assay [2] was more than 20 µM in each case. Take `CC(C)C[C@@H]1NC(=O)[C@@H](C2CCCC2)CCCC[C@H]2CNC(=O)[C@H]2C[C@@H](C#N)NC1=O` [Example 41]: the half-inhibitory concentration (IC50) in assay [1] was more than 20 µM. In assay [2], `CC(C)C[C@@H]1NC(=O)[C@@H](Cc2ccccc2)CCC[C@H]2CNC(=O)[C@@H]2C[C@@H](C=O)NC1=O` [Example 10] registered a concentration for half-maximal inhibition (IC50) of 1 to 20 µM.

As to `CC(C)C[C@@H]1NC(=O)[C@@H](Cc2ccccc2)CCCC[C@@H]2CNC(=O)[C@@H]2C[C@@H](C=O)NC1=O` [Example 35], the half-inhibitory concentration (IC50) in assay [1] fell in the range of 1 to 20 µM.
